Measurements published in patent US20040063165A1, “Light-activated in vitro assay process for luciferase bioluminescence” (priority 2003, published 2004).

How the values were obtained:
luciferase = assay: UV uncaging of caged ATP to trigger luciferase chemiluminescent reaction (Example 1); type: biochemical; conditions: 1 millisecond UV pulse, Xenon lamp; pulse power varied 40, 60, 80 mJ per pulse; ATP the limiting factor
Method: In this experiment, caged ATP was utilized to control the reaction. […] Reagents:
Lyophilized luciferase/lyophilized D-Luciferin were dissolved in Tricine buffer [50 mM N-tris(hydroxymethyl)methylglycine, adjusted with NaOH to pH 7.8, Lot 1418] both supplied by Kikkoman as assay kit, CheckLite HS Plus, Catalog # 60342).
5 mM Mg citrate in phosphate buffered saline (PBS, pH 7.4)
Caged ATP (p-(1-(4,5-dimethoxy-2-nitrophenyl)ether, disodium salt-caged adenosine-5-triphosphate) in methanol, 5 mg in 300 μL (Molecular probes, Catalog # A-1049).
In a total reaction volume of 20 μL, the following were mixed in a suitable reaction cell
10 μL of Luciferase/D-Luciferin solution mix,
5 μL of 5 mM Mg Citrate in PBS
5 μL of caged ATP solution.

[1] = tested on: Firefly luciferase enzyme; conditions: 1 millisecond UV pulse, Xenon lamp; pulse power varied 40, 60, 80 mJ per pulse; D-Luciferin the limiting factor
Method: In this experiment, caged D-Luciferin was utilized to control the reaction.
Functional D-Luciferin was delivered to the reaction from caged D-Luciferin upon exposure of the reaction components to a pulse of UV light with suitable power.
Firefly luciferase enzyme dissolved in Tricine buffer pH 7.8 (50 mM N-Tris (hydroxymethyl) methylglycine) adjusted with NaOH, supplied by Kikkoman Catalog LUC T
5 mM Mg citrate in PBS, pH 7.4-
100 mM ATP solution, pH 7.5 (Amersham Pharmacia, Catalog No. 272056).
In a total reaction volume of 25 μL, the following components were added as solutions to a suitable cell:
10 μL of luciferase solution
5 μL of 5 mM Mg citrate in PBS
5 μL of 1 mM ATP solution
5 μL caged D-Luciferin solution.
The cell with the components was exposed to a pulse of UV (1 millisecond_pulse by a Xenon Lamp, Rapp Optoelectronic). The power of the UV pulse was varied (40, 60, 80 mJ per pulse).

Compound | amount of light released from the reaction (luciferase) | amount of light released from the reaction [1]
COc1cc(C(C)OP(=O)([O-])OP(=O)(O)OP(=O)([O-])OCC2OC(n3cnc4c(N)ncnc43)C(O)C2O)c([N+](=O)[O-])cc1OC.[Na+].[Na+] (centres unmarked) [caged ATP, p-(1-(4,5-dimethoxy-2-nitrophenyl)ether, disodium salt-cagedadenosine-5-triphosphate)] | increased with the increase of the UV pulse power | –
1-(4,5-dimethoxy-2-nitrophenyl)ethyl ester—caged D-luciferin | – | increased with the increase of the UV pulse power
